# Source: PubChem BioAssay AID2060499 (Molecular Pharmacology Branch, DTP, NCI, 2025)
# Several values for one entry are separate records, joined by “and”; a condition that tells them apart may be missing. Equal entries are not always repeated.
# System: 777334-354-R2-J4-PDC tumor spheroids with HUVEC/MSC, viability
# Experiment: Anticancer human tumor 777334-354-R2-J4-PDC patient-derived pancreatic adenocarcinoma cell line growth inhibition [GQUAD]
# Conditions: for viability, T/C: stronger effect = lower value
# Excerpt: DNA G-quadruplex Stabilizer Agents in Combinations in Complex Spheroids
# A high-throughput screen of multi-cell type tumor spheroids was designed to identify active combinations of DNA G-quadruplex stabilizer agents and targeted small molecules. Complex spheroids include a stromal component modeled by human endothelial cells (HUVEC) and fibroblasts modeled by human mesenchymal stem cells (MSCs). The concentration ranges selected for each drug and investigational agent were based upon clinically achievable concentrations if the clinical Cmax of the agent was known.
# Compounds. The drugs and investigational agents: pidnarulex (CX-5461; NSC782164), APTO-253 (NSC789042), BRACO-19 (NSC847499), peposertib (NSC802822), ceralasertib (NSC780249), elimusertib (NSC800525), camonsertib (NSC841442), AZD-1390 (NSC803789), olaparib (NSC753686), talazoparib (NSC767125), ART-558 (NSC835418), sotorasib (NSC818433), MRTX-1133 (NSC836407), SN-38 (NSC673596), topotecan (NSC609699), etoposide (NSC141540), doxorubicin (NSC123127), gemcitabine (NSC613327), 5-fluorouracil (NSC19893), paclitaxel (NSC125973), vemurafenib (NSC761431), panobinostat (NSC761190), R-306465 (JNJ-16241199; NSC773264), adavosertib (NSC754352), TP-3654 (NSC805149), carboplatin (NSC241240), KSQ-4279 (NSC840948), and staurosporine (NSC755774) were obtained from the National Cancer Institute (NCI) Developmental Therapeutics Program Chemical Repository (34). The FDA-approved anticancer drug set is available from the NCI Developmental Therapeutics Program. […] The stock solutions were prepared in dimethyl sulfoxide (DMSO, Sigma-Aldrich, St. Louis, MO, cat. D2650) at 800-fold the tested concentration and stored at -70 degrees C prior to their use. All drugs and investigational agents were tested over a range starting from a high concentration at or near the clinical Cmax and decreasing in half-log increments. If the clinical Cmax for an agent had not been determined, the highest concentration tested was 10 microM.
# 2.3 Cell Culture. All cells were maintained in an incubator at 37 degrees C and 5% CO2 with 95% humidity. The PDC lines were cultured according to standard operating procedures established by the NCI PDMR. All PDCs were thawed and cultured in Matrigel-coated flasks prepared with a working solution of 1X Ham's F-12 nutrient mix, without supplementation (Invitrogen, cat. 11765054), 100 U/mL penicillin-streptomycin (Invitrogen, cat. 15140122), and 2.5% Matrigel (Corning Inc., cat. 354248) for the first three passages. The 857933-349-R-J2-PDC line was cultured in 6C/Colon 1B media, which includes advanced DMEM/F-12 (Thermo Fisher Scientific, cat. 12634028), 10 mM HEPES (Thermo Fisher Scientific, cat. 15630080), 1X GlutaMAX supplement (Thermo Fisher Scientific, cat. 35050061), 0.1 mg/mL primocin (InvivoGen, cat. ant-pm-2), 10% defined fetal bovine serum, heat inactivated (HyClone Laboratories Inc., cat. SH30070.03HI), 50% L-WRN conditioned media (ATCC, cat. CRL-3276), 1.25 mM N-Acetyl-L-cysteine (Sigma-Aldrich, cat. A9165), 10 mM nicotinamide (Sigma-Aldrich, cat. N0636), 1X B-27 supplement (Thermo Fisher Scientific, cat. 17504044), 1X N-2 supplement (Thermo Fisher Scientific, cat. 17502048), 10 microM Y-27632 dihydrochloride (Tocris Bioscience, cat. 1254), and 50 ng/mL human EGF recombinant protein (Thermo Fisher Scientific, cat. PHG0311). The 485176-168-R4-J1-PDC line was cultured in Panc media, which includes all 6C/Colon 1B media components plus 100 ng/mL human FGF-10 (Thermo Fisher Scientific, cat. 100-26), 500 nM SB-431542 (Selleckchem, cat. S1067), and gastrin (Tocris, cat. 3006).
# […]
# [1] = curve of first compound, second compound 0.0316 µM
# [2] = curve of first compound, second compound 0.1 µM
# [3] = curve of first compound, second compound 0.316 µM
# [4] = curve of first compound, second compound 1 µM
# [5] = curve of first compound, second compound 3.16 µM
# [6] = curve of first compound, second compound 10 µM
# [7] = second compound 0.0316 µM, first compound 0.0316 µM
# [8] = second compound 0.0316 µM, first compound 0.1 µM
# [9] = second compound 0.0316 µM, first compound 0.316 µM
# [10] = second compound 0.0316 µM, first compound 1 µM
# [11] = second compound 0.0316 µM, first compound 3.16 µM
# [12] = second compound 0.0316 µM, first compound 10 µM
# [13] = second compound 0.1 µM, first compound 0.0316 µM
# [14] = second compound 0.1 µM, first compound 0.1 µM
# [15] = second compound 0.1 µM, first compound 0.316 µM
# [16] = second compound 0.1 µM, first compound 1 µM
# [17] = second compound 0.1 µM, first compound 3.16 µM
# [18] = second compound 0.1 µM, first compound 10 µM
# [19] = second compound 0.316 µM, first compound 0.0316 µM
# [20] = second compound 0.316 µM, first compound 0.1 µM
# [21] = second compound 0.316 µM, first compound 0.316 µM
# [22] = second compound 0.316 µM, first compound 1 µM
# [23] = second compound 0.316 µM, first compound 3.16 µM
# [24] = second compound 0.316 µM, first compound 10 µM
# [25] = second compound 1 µM, first compound 0.0316 µM
# [26] = second compound 1 µM, first compound 0.1 µM
# [27] = second compound 1 µM, first compound 0.316 µM
# [28] = second compound 1 µM, first compound 1 µM
# [29] = second compound 1 µM, first compound 3.16 µM
# [30] = second compound 1 µM, first compound 10 µM
# [31] = second compound 3.16 µM, first compound 0.0316 µM
# [32] = second compound 3.16 µM, first compound 0.1 µM
# [33] = second compound 3.16 µM, first compound 0.316 µM
# [34] = second compound 3.16 µM, first compound 1 µM
# [35] = second compound 3.16 µM, first compound 3.16 µM
# [36] = second compound 3.16 µM, first compound 10 µM
# [37] = second compound 10 µM, first compound 0.0316 µM
# [38] = second compound 10 µM, first compound 0.1 µM
# [39] = second compound 10 µM, first compound 0.316 µM
# [40] = second compound 10 µM, first compound 1 µM
# [41] = second compound 10 µM, first compound 3.16 µM
# [42] = second compound 10 µM, first compound 10 µM
# 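Note: spheroids exposed to compounds for 7 days before readout.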
smiles,measurement,setting,value
Cc1cccc(N(C)C(=O)C2C(O)CCN2c2nc(C)cc(C(F)(F)F)c2C#N)c1 (stereo not drawn),"viability, T/C",compound 0.0316 µM,102% (2×) and 107%
same,"viability, T/C",compound 0.1 µM,108% and 104% and 87.8%
same,"viability, T/C",compound 0.316 µM,99.9% and 101% and 98.9%
same,"viability, T/C",compound 1 µM,87.3% and 100% and 95%
same,"viability, T/C",compound 3.16 µM,92.4% and 93.6% and 109%
same,"viability, T/C",compound 10 µM,96.5% and 85.7% and 94.7%
same,IC50,curve of compound,> 10 µM
COc1ncnc(C2CC2)c1-c1ncc2cnn(Cc3ccc(-c4nc(C(F)(F)F)cn4C(C)C)cc3)c2n1,"viability, T/C",compound 0.0316 µM,102% and 98.3% (2×)
same,"viability, T/C",compound 0.1 µM,96.7% and 90.9% and 106%
same,"viability, T/C",compound 0.316 µM,103% and 98.9% and 98.6%
same,"viability, T/C",compound 1 µM,91.9% and 99.5% and 98.8%
same,"viability, T/C",compound 3.16 µM,102% and 100% and 99.3%
same,"viability, T/C",compound 10 µM,109% and 111% and 98.8%
same,IC50,curve of compound,> 10 µM
CC(C)n1c(=O)n(C)c2cnc3cc(F)c(-c4ccc(OCCCN5CCCCC5)nc4)cc3c21 + Cc1cnc(CNC(=O)c2c(=O)c3ccc(N4CCCN(C)CC4)nc3n3c2sc2ccccc23)cn1,IC50,[1],> 10 µM
same,IC50,[2],> 10 µM
same,IC50,[3],> 10 µM
same,IC50,[4],> 10 µM
same,IC50,[5],> 10 µM
same,IC50,[6],> 10 µM
same,"viability, T/C",[7],85.8%
same,"viability, T/C",[8],84%
same,"viability, T/C",[9],93.9%
same,"viability, T/C",[10],91%
same,"viability, T/C",[11],103%
same,"viability, T/C",[12],85.6%
same,"viability, T/C",[13],78.3%
same,"viability, T/C",[14],74.3%
same,"viability, T/C",[15],89.1%
same,"viability, T/C",[16],73.6%
same,"viability, T/C",[17],74.2%
same,"viability, T/C",[18],91.4%
same,"viability, T/C",[19],71.4%
same,"viability, T/C",[20],73.2%
same,"viability, T/C",[21],73.8%
same,"viability, T/C",[22],84.7%
same,"viability, T/C",[23],76%
same,"viability, T/C",[24],74.8%
same,"viability, T/C",[25],73.3%
same,"viability, T/C",[26],71.6%
same,"viability, T/C",[27],66.9%
same,"viability, T/C",[28],72.7%
same,"viability, T/C",[29],85.7%
same,"viability, T/C",[30],73.7%
same,"viability, T/C",[31],57.6%
same,"viability, T/C",[32],62.8%
same,"viability, T/C",[33],66.5%
same,"viability, T/C",[34],62.1%
same,"viability, T/C",[35],78.6%
same,"viability, T/C",[36],63.4%
same,"viability, T/C",[37],57.4%
same,"viability, T/C",[38],52.9%
same,"viability, T/C",[39],61.6%
same,"viability, T/C",[40],62%
same,"viability, T/C",[41],69%
same,"viability, T/C",[42],64.1%
COc1ncnc(C2CC2)c1-c1ncc2cnn(Cc3ccc(-c4nc(C(F)(F)F)cn4C(C)C)cc3)c2n1 + Cc1cnc(CNC(=O)c2c(=O)c3ccc(N4CCCN(C)CC4)nc3n3c2sc2ccccc23)cn1,IC50,[1],> 10 µM
same,IC50,[2],> 10 µM
same,IC50,[3],> 10 µM
same,IC50,[4],> 10 µM
same,IC50,[5],> 10 µM
same,IC50,[6],> 10 µM
same,"viability, T/C",[7],106%
same,"viability, T/C",[8],94.8%
same,"viability, T/C",[9],101%
same,"viability, T/C",[10],92.5%
same,"viability, T/C",[11],106%
same,"viability, T/C",[12],95%
same,"viability, T/C",[13],91.5%
same,"viability, T/C",[14],83.8%
same,"viability, T/C",[15],97.6%
same,"viability, T/C",[16],80.8%
same,"viability, T/C",[17],92.4%
same,"viability, T/C",[18],90.3%
same,"viability, T/C",[19],82.8%
same,"viability, T/C",[20],81%
same,"viability, T/C",[21],72%
same,"viability, T/C",[22],85.8%
same,"viability, T/C",[23],87.8%
same,"viability, T/C",[24],86.5%
same,"viability, T/C",[25],65.3%
same,"viability, T/C",[26],75.7%
same,"viability, T/C",[27],67.4%
same,"viability, T/C",[28],76.3%
same,"viability, T/C",[29],77.4%
same,"viability, T/C",[30],82.1%
same,"viability, T/C",[31],64.3%
same,"viability, T/C",[32],73.5%
same,"viability, T/C",[33],55%
same,"viability, T/C",[34],65.7%
same,"viability, T/C",[35],80.8%
same,"viability, T/C",[36],70.3%
same,"viability, T/C",[37],55.5%
same,"viability, T/C",[38],63.6%
same,"viability, T/C",[39],57.9%
same,"viability, T/C",[40],59.2%
same,"viability, T/C",[41],58.2%
same,"viability, T/C",[42],56.7%
